According to US20220267380A1, “Glycopeptides Increasing Lipid Synthesis” (TFCHEM, priority 2019, published 2022):

Tested on: normal human dermal fibroblasts (NHDF)
Assay: Gene expression in NHDF, full transcriptome analysis with Affymetrix U219 microarray
Type: cell-based
Conditions: 10 mg/ml
Method: In the present study, the transcriptional effects (modulation of gene expression) of compounds 1, 2, 3 and 4 were evaluated on normal human dermal fibroblasts (NHDF) under basal conditions.
More specifically, the comparative analysis of the different transcriptomic profiles was performed using an Affymetrix GeneAtlas platform and the human “full transcriptome” U219 chip, which includes 36,000 transcripts and variants.
Fibroblasts were seeded in 24-well plates and cultured in culture medium for 24 hours. The medium was then replaced by assay medium and cells were incubated for further 24 hours. The medium was replaced by assay medium containing or not (control) the test compounds at different concentrations and the cells were preincubated for 24 hours. All experimental conditions were performed in triplicate. At the end of incubation, the culture supernatants were removed and the cells were washed in a phosphate buffered saline (PBS) solution and immediately frozen at −80° C.
Before RNA extraction, the replicates were pooled. Total RNA was extracted from each sample using TriPure Isolation Reagent® according to the supplier's instructions. The amount and quality of total RNA were evaluated for all samples using capillary electrophoresis (Bioanalyzer 2100, Agilent technologies). From each RNA, a labeled and amplified anti-sens RNA (aRNA) was obtained using GeneChip 3′IVT PLUS Kit (Affymetrix). For each labeled and amplified aRNA sample the profiles were evaluated before and after fragmentation using capillary electrophoresis (Bioanalyzer 2100, Agilent technologies). Hybridization of fragmented aRNA onto Affymetrix® U219 chip (36,000 transcripts and variants) was performed in the GeneAtlas™ fluidics Affymetrix® hybridization station for 20 hours at 45° C. U219 chip was analyzed using the GeneAtlas™ Imaging station (Affymetrix®—resolution 2 μm) to generate fluorescence intensity data.
Expression Console and Quality controls: data were normalized with the Expression Console (Affymetrix®) software using RMA algorithm. Then a quality control of the labeling and the hybridization was performed. Hybridization and labeling steps successfully passed the quality controls for these experiments.
Data reduction, Excel file description: once normalized with Expression Console, data were transferred into a Microsoft Excel® file in order to go further into data reduction.
Calculation and tools were added in order to rank and sort data, and finally to support data interpretation. Detection thresholds in terms of fold change were defined and applied on normalized data.
Results are considered and presented or commented per gene (and not probe). A probe set is a collection of probes designed to interrogate a given sequence of a gene. For data interpretation, the most important relative expression value obtained with one probe is considered to be representative of the corresponding gene. The file contains the following data: • Relative expression (RE) for each sample, • Fold change calculation, • Gene information.

[1] = relative expression adjusted to detection limit (<20), NHDF, 24 h
[2] = signed value, Tables 13-14, NHDF

C[C@H](NC(=O)[C@H](C)NC(=O)[C@@H](N)CCCCNCC(F)(F)[C@]1(O)O[C@H](CO)[C@H](O)[C@H](O)[C@H]1O)C(=O)O [Compound 1]
REadj2, PCYT2 [1]: 188.93
REadj2, PLD1 [1]: 176.07
REadj2, PTPLA [1]: 498.96
REadj2, SOAT1 [1]: 390.22
REadj2, SREBF1 [1]: 519.22
REadj2, POR (relative expression adjusted to detection limit (<20), NHDF, 24 h, probe set 11716114_x_at): 256.70
REadj2, HMGCS1 (relative expression adjusted to detection limit (<20), NHDF, 24 h, probe set 11716987_a_at): 875.52
REadj2, EBP (relative expression adjusted to detection limit (<20), NHDF, 24 h, probe set 11717859_a_at): 582.73
REadj2, FDPS (relative expression adjusted to detection limit (<20), NHDF, 24 h, probe set 11718366_s_at): 2391.43
REadj2, MVK (relative expression adjusted to detection limit (<20), NHDF, 24 h, probe set 11719098_a_at): 135.62
REadj2, PGS1 (relative expression adjusted to detection limit (<20), NHDF, 24 h, probe set 11724792_a_at): 118.91
REadj2, KDSR (relative expression adjusted to detection limit (<20), NHDF, 24 h, probe set 11730180_s_at): 1037.81
REadj2, KDSR (relative expression adjusted to detection limit (<20), NHDF, 24 h, probe set 11730181_s_at): 549.40
REadj2, GBA (relative expression adjusted to detection limit (<20), NHDF, 24 h, probe set 11736100_a_at): 445.83
REadj2, CHKA (relative expression adjusted to detection limit (<20), NHDF, 24 h, probe set 11736285_a_at): 104.91
REadj2, CHKA (relative expression adjusted to detection limit (<20), NHDF, 24 h, probe set 11736286_a_at): 120.28
REadj2, PHLDB2 (relative expression adjusted to detection limit (<20), NHDF, 24 h, probe set 11737039_a_at): 119.06
REadj2, PHLDB2 (relative expression adjusted to detection limit (<20), NHDF, 24 h, probe set 11737041_a_at): 128.19
REadj2, PHLDB2 (relative expression adjusted to detection limit (<20), NHDF, 24 h, probe set 11737042_s_at): 120.07
REadj2, PHLDB2 (relative expression adjusted to detection limit (<20), NHDF, 24 h, probe set 11737043_x_at): 178.68
REadj2, NPC1 (relative expression adjusted to detection limit (<20), NHDF, 24 h, probe set 11743916_a_at): 361.48
REadj2, FADS1///MIR1908 (relative expression adjusted to detection limit (<20), NHDF, 24 h, probe set 11745459_a_at): 1633.20
REadj2, NPC1 (relative expression adjusted to detection limit (<20), NHDF, 24 h, probe set 11746723_a_at): 192.21
REadj2, MVK (relative expression adjusted to detection limit (<20), NHDF, 24 h, probe set 11747747_a_at): 83.27
REadj2, POR (relative expression adjusted to detection limit (<20), NHDF, 24 h, probe set 11748368_x_at): 269.37
REadj2, PGS1 (relative expression adjusted to detection limit (<20), NHDF, 24 h, probe set 11748428_a_at): 84.52
REadj2, EBP (relative expression adjusted to detection limit (<20), NHDF, 24 h, probe set 11749332_x_at): 445.85
REadj2, GBA (relative expression adjusted to detection limit (<20), NHDF, 24 h, probe set 11750975_x_at): 439.06
REadj2, GBA (relative expression adjusted to detection limit (<20), NHDF, 24 h, probe set 11751085_a_at): 451.06
REadj2, GBA (relative expression adjusted to detection limit (<20), NHDF, 24 h, probe set 11751086_x_at): 338.51
REadj2, KDSR (relative expression adjusted to detection limit (<20), NHDF, 24 h, probe set 11751627_a_at): 533.05
REadj2, FADS1///MIR1908 (relative expression adjusted to detection limit (<20), NHDF, 24 h, probe set 11752670_a_at): 2502.62
REadj2, GBA (relative expression adjusted to detection limit (<20), NHDF, 24 h, probe set 11753440_x_at): 229.00
REadj2, HMGCS1 (relative expression adjusted to detection limit (<20), NHDF, 24 h, probe set 11754918_s_at): 929.88
REadj2, FADS1///MIR1908 (relative expression adjusted to detection limit (<20), NHDF, 24 h, probe set 11755251_x_at): 1571.10
REadj2, FDPS (relative expression adjusted to detection limit (<20), NHDF, 24 h, probe set 11758249_s_at): 2098.38
Fold change, ABCA1 [2]: 2.112
Fold change, ABHD5 [2]: 2.634
Fold change, ACAT2 [2]: 2.124
Fold change, ACSS2 [2]: 2.288
Fold change, ADORA2B [2]: 2.461
Fold change, AKR1B1 [2]: 4.194
Fold change, AKR1C1/AKR1C2 [2]: 2.597
Fold change, ALDH1A3 [2]: −3.504
Fold change, ANGPT1 [2]: −2.510
Fold change, CD9 [2]: 2.337
Fold change, CH25H [2]: −2.770
Fold change, CHKA [2]: 2.999
Fold change, CLN3 [2]: 2.570
Fold change, CYP19A1 [2]: 2.736
Fold change, CYP51A1 [2]: 2.202
Fold change, DHCR7 [2]: 3.675
Fold change, DHCR24 [2]: 2.267
Fold change, EBP [2]: 2.685
Fold change, EGR1 [2]: −2.928
Fold change, FADS1 [2]: 4.196
Fold change, FADS2 [2]: 2.642
Fold change, FDPS [2]: 2.104
Fold change, FGF2 [2]: 2.008
Fold change, FOS [2]: −2.521
Fold change, GBA [2]: 3.016
Fold change, GPER1 [2]: 2.031
Fold change, GRP [2]: −2.699
Fold change, HMGCR [2]: 2.018
Fold change, HMOX1 [2]: 5.168
Fold change, HSD3B7 [2]: 2.132
Fold change, HSD17B7 [2]: 2.443
Fold change, HTR2B [2]: 2.118
Fold change, IDI1 [2]: 2.013
Fold change, IGFBP2 [2]: −2.717
Fold change, INSIG1 [2]: 3.422
Fold change, KDSR [2]: 2.288
Fold change, LDLR [2]: 2.988
Fold change, LPIN1 [2]: 2.458
Fold change, LSS [2]: 2.527
Fold change, MAP3K8 [2]: 3.713
Fold change, ME1 [2]: 2.548
Fold change, MVD [2]: 2.448
Fold change, MVK [2]: 2.082
Fold change, NGF [2]: −2.648
Fold change, NPC1 [2]: 6.532
Fold change, NRG1 [2]: −2.111
Fold change, NSMAF [2]: 2.624
Fold change, NTN1 [2]: 2.832
Fold change, PCYT2 [2]: 2.412
Fold change, PDE5A [2]: −3.902
Fold change, PDK4 [2]: −2.280
Fold change, PGS1 [2]: 2.410
Fold change, PLAU [2]: −2.785
Fold change, PLD1 [2]: 2.155
Fold change, POR [2]: 2.200
Fold change, PTGS1 [2]: 3.893
Fold change, RAB27A [2]: 2.279
Fold change, RUNX1 [2]: 2.441
Fold change, S1PR1 [2]: 2.651
Fold change, SCD [2]: 7.772
Fold change, SEMA3A [2]: −3.169
Fold change, SERINC2 [2]: 2.635
Fold change, SLC1A3 [2]: 4.715
Fold change, SOAT1 [2]: 2.012
Fold change, SOCS3 [2]: 3.734
Fold change, SREBF1 [2]: 3.237
Fold change, ST6GALNAC5 [2]: 2.080
Fold change, STC1 [2]: 3.016
